Experimental data from PubChem BioAssay (NCI).
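Briefly, cells in 96-well plates were exposed to five compound concentrations for 48 h, and endpoints were estimated by linear interpolation. The concentration for 50% growth inhibition is given as GI50. TGI denotes the concentration required for complete inhibition of growth.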

Experiments:
Assay in all cases: NCI anticancer screen, dose series, 48 h
[1] = system: 786-0 renal
[2] = system: BT-549 breast
[3] = system: COLO 205 colon
[4] = system: DU-145 prostate
[5] = system: HT29 colon
[6] = system: IGROV1 ovarian
[7] = system: MDA-MB-435
[8] = system: NCI/ADR-RES ovarian
[9] = system: SK-MEL-28 melanoma
[10] = system: SR leukemia

| SMILES | GI50 [1] | TGI [1] | GI50 [2] | TGI [2] | GI50 [3] | TGI [3] | GI50 [4] | TGI [4] | GI50 [5] | TGI [5] | GI50 [6] | TGI [6] | GI50 [7] | TGI [7] | GI50 [8] | TGI [8] | GI50 [9] | TGI [9] | GI50 [10] | TGI [10] |
| --- | --- | --- | --- | --- | --- | --- | --- | --- | --- | --- | --- | --- | --- | --- | --- | --- | --- | --- | --- | --- |
| Nc1ncnc2c1c(-c1cccc(OCc3ccccc3)c1)cn2C1CC(CN2CCCC2)C1 (stereo not given) | 1.72 µM | 3.34 µM | 2.02 µM | 4.99 µM | 0.331 µM | 1.47 µM | 4 µM | 16.9 µM | 0.117 µM | 1.63 µM | 2.92 µM | 7.5 µM | 1.29 µM | 3.08 µM | 5.01 µM | 21.5 µM | 1.4 µM | 2.8 µM | 2.4 µM | 11.2 µM |
| Fc1ccc(CNc2c3ccccc3nc3ccccc23)cc1 | 3.02 µM | 11.7 µM | 4.66 µM | 18 µM | 1.66 µM | 3.7 µM | 3.18 µM | 11.3 µM | 2.27 µM | 9.54 µM | 2.3 µM | 6.02 µM | 1.89 µM | 4.07 µM | 2.33 µM | 8.07 µM | 3.27 µM | 11.6 µM | 2.2 µM | 7.75 µM |
| CC1(C)CC(=O)C(C(c2cccc(O)c2O)C2C(=O)CC(C)(C)CC2=O)C(=O)C1 | – | > 100 µM | – | > 100 µM | – | > 100 µM | – | > 100 µM | – | > 100 µM | – | > 100 µM | – | > 100 µM | – | > 100 µM | – | > 100 µM | – | > 100 µM |
| Cn1cc(C2=C(c3c4n(c5ccccc35)CC(CN)C4)C(=O)NC2=O)c2ccccc21 (stereo not given) | 3.64 µM | 8.53 µM | 4.46 µM | 10.5 µM | 2.59 µM | 6.05 µM | 4.02 µM | 9.53 µM | 3.04 µM | 11.8 µM | 3.52 µM | 9.08 µM | 1.11 µM | 4.72 µM | 10.1 µM | 25 µM | 3.37 µM | 7.01 µM | 1.74 µM | 13.8 µM |
| COc1ccc(-c2cc(-c3ccc(O)cc3)nc3nc(=S)[nH]c(N)c23)cc1 | 22.8 µM | 56.6 µM | 12.4 µM | 32.7 µM | 17 µM | 50.1 µM | 12.1 µM | 35.3 µM | 30.1 µM | > 100 µM | 18.6 µM | 73.8 µM | 17.3 µM | 41.4 µM | 26.1 µM | 66.3 µM | 66.8 µM | > 100 µM | 6.94 µM | > 100 µM |
| O=C(O)CNC(=O)c1ccccc1O | – | > 100 µM | – | > 100 µM | – | > 100 µM | – | > 100 µM | – | > 100 µM | – | > 100 µM | – | > 100 µM | – | > 100 µM | – | > 100 µM | – | > 100 µM |
| C#CC[C@@H]1C[C@]2(C)[C@H]3CC[C@@H]4[C@H]5[C@H](C(=C)C)CC[C@]5(C(=O)O)CC[C@@]4(C)[C@]3(C)CC[C@H]2C(C)(C)[C@H]1O | 1.71 µM | 3.4 µM | 2.52 µM | 8.73 µM | 2.09 µM | 4.68 µM | 3.23 µM | 10.8 µM | 1.93 µM | 3.69 µM | 4.21 µM | 15.6 µM | 3.03 µM | 10.8 µM | 2.03 µM | 5.24 µM | 2.75 µM | 7.6 µM | 3.12 µM | 11.9 µM |
| COc1ccc2c(CC(=O)O)cc(=O)oc2c1 | – | > 100 µM | – | > 100 µM | – | > 100 µM | – | > 100 µM | – | > 100 µM | – | > 100 µM | – | > 100 µM | – | > 100 µM | – | > 100 µM | – | > 100 µM |
| CCOC(=O)c1c[nH]c2c(OCc3ccccc3)c3ccccc3c(O)c2c1=O | 18.6 µM | 57.4 µM | 12.7 µM | 37.8 µM | 47 µM | > 100 µM | 12.1 µM | > 74.2 µM | 22.2 µM | > 100 µM | 34.4 µM | > 100 µM | 6.44 µM | 15.6 µM | 10.9 µM | > 64.7 µM | 25.8 µM | > 100 µM | 21.3 µM | > 100 µM |
| C(=N/Nc1ncnc2nc[nH]c12)/c1ccccn1 | 1.65 µM | 5.43 µM | 1.86 µM | > 100 µM | 1.72 µM | > 100 µM | 0.596 µM | > 49.3 µM | 4.07 µM | > 100 µM | 2.11 µM | 20.9 µM | 1.08 µM | > 100 µM | 0.382 µM | > 22.3 µM | 1.2 µM | > 100 µM | 0.4 µM | > 100 µM |
| CC(=O)Oc1ccc2ccc(=O)oc2c1OC(C)=O | – | > 100 µM | – | > 100 µM | – | 63.1 µM | – | > 100 µM | – | > 100 µM | – | > 100 µM | – | > 100 µM | – | > 100 µM | – | > 100 µM | – | > 100 µM |
| O=C(CCc1nnc(-c2c(Cl)cccc2Cl)o1)c1nc2ccccc2[nH]1 | 10.7 µM | 45.5 µM | 7.54 µM | 92.4 µM | 2.66 µM | 7.08 µM | 17.8 µM | > 100 µM | 3.77 µM | 55.1 µM | 5.26 µM | 39.1 µM | 2 µM | 4.77 µM | 5.47 µM | > 100 µM | 12.7 µM | 42.7 µM | 2.63 µM | 15.2 µM |
| O=C(Nc1ncc(Cc2ccccc2)s1)c1ccc2c(c1)OCCO2 | 0.0562 µM | > 100 µM | 0.267 µM | > 100 µM | 0.0354 µM | 1.08 µM | 0.0395 µM | > 100 µM | 0.0506 µM | > 22 µM | 0.0761 µM | > 100 µM | 0.0187 µM | 0.0436 µM | 0.0395 µM | > 100 µM | 0.0823 µM | > 100 µM | 0.0487 µM | > 100 µM |
| CCOC(=O)C1=C(N)Oc2c(sc3c(C)cccc23)C1c1ccc(Cl)cc1 (stereo not given) | 4.05 µM | 16.8 µM | 3.3 µM | 15.8 µM | 3.46 µM | 14.1 µM | 3.89 µM | 14.1 µM | 3.16 µM | 11.8 µM | 0.962 µM | 15.4 µM | 0.447 µM | 2.59 µM | 0.952 µM | 7.18 µM | 10.3 µM | 23.6 µM | 1.49 µM | 18 µM |
| CC(C)c1ccc2c(N=Nc3ccc(S(N)(=O)=O)cc3)c(O)[nH]c2c1 | 12.6 µM | > 25 µM | 8.76 µM | > 16.4 µM | > 25 µM | > 25 µM | 12.5 µM | > 25 µM | > 25 µM | > 25 µM | > 15.5 µM | > 25 µM | > 23.2 µM | > 25 µM | > 13.5 µM | > 25 µM | > 25 µM | > 25 µM | > 16.2 µM | > 25 µM |
